The results in this text go back to patent EP0984967B1, “NAPHTHYRIDINE DERIVATIVES AND THEIR ANALOGUES INHIBITING CYTOMEGALOVIRUS” (BIOCHEM PHARMA INC, priority 1996, dated 1997).

The subject of one data set is HCMV virus. As to the kind of experiment: CMV plaque reduction assay. Type of data set: cell-based. To be noted: Human betaherpesvirus 5, 192 h; plaque reduction, HCMV in Hs68 cells (human foreskin fibroblast cell line), 8 days at 37°C. As to the method:
The anti-CMV activity of test compounds was evaluated in a plaque reduction assay as follows: In 12-well tissue culture dishes, 1.5X10E5 or Hs68 cells (human […] fibroblast cell line) were plated per well with 2 ml of DMEM 10% fetal bovine serum and incubated in 5% CO2/air at 37°C overnight or until cells were ready. The medium was then removed and the cells inoculated with 0.5 ml (containing 200 pfu/ml diluted in DMEM 2% FBS) of HCMV virus in each well. After adsorption at 37°C for 2 hours, the virus was removed and cell monolayers were overlaid (1ml) with DMEM 2% FBS containing test compounds at various concentrations. The cells were then incubated at 37°C for 8 days, and then fixed with one volume (1ml) of formaldehyde 8%/water or PBS 1X for 30 minutes. The formaldehyde solution was removed and the cell monolayers were stained with crystal violet 2%/EtOH 20% for a few seconds and then rinsed with water. Monolayers were examined for the presence of plaques under a microscope, the percentage of plaque reduction determined for each compound by comparison with the untreated cells (no test compound) and the 50% inhibitory concentration (IC50) established. Ganciclovir was used as a positive control. Note: DMEM medium contained 1% glutamine and 1% pen/strep

The nature of data set [1]: Cytotoxicity assay ([3H]-methyl thymidine incorporation, cell proliferation). Type of data set: cell-based. To be noted: vero-34, hs-68 or wi-38; 50% inhibitory concentration of cell proliferation, 48 hours with compound then 18 hours [3H]-methyl thymidine; cell line not given. On the procedure: The cytotoxicity of test compounds was evaluated according to the following procedure: Flat bottom 96 well plates were plated with 5X10E3 Vero-34 cells/well and 1X10E4 Hs-68 or Wi-38 cells/well respectively and incubated overnight at 37°C and 5% CO2/air. After incubation, the supernatant medium was removed and replaced with test compound dilutions in 2% DMEM (150ul). The cells were then incubated 48 hours in a 5% CO2 incubator at 37°C. […] Cells were then collected onto a fiberglass filter (Printed Filtermat A 1450-421 Wallac) with a Tomtec cell harvester. Suspended cells were collected directly onto filter while for adherent cells, the medium was first removed, then the cells washed with PBS and trypsinized for 2-3 minutes (50µl trypsin/well) before collecting. Filters were dried for 1 hour at 37-40°C and then placed into bags (1450-microbeta # 1450-432 Wallac) with 4.5ml of Betascint and counts obtained with Microbeta 1450 Wallac (protocol 1). The percent of cell proliferation was determined by comparison to the control (no test compound) and thereby establishing 50% inhibitory concentration is established.
(Incorporation of labelled thymidine or its analogues reports DNA synthesis.)

Converted amounts (≈) assume the structure as drawn.

By IC50 is commonly meant the concentration needed to halve the response being measured. Read a high IC50 as weaker potency in that assay. The CC50 is the concentration giving 50% cytotoxicity. Compound `O=C(N[C@@H]1C[C@H]1c1ccccc1)c1ccc2cnccc2n1` (relative stereo) [compound #15, [1,6]naphthyridine-2-carboxylic acid (trans-2-phenyl-cyclopropyl)-amide] displayed an IC50 in the data set with HCMV virus of 1 to 10 mg/L (≈ 3.46 to 34.6 µM). For the same compound, the 50% cytotoxic concentration (CC50) at 48 h in data set [1] was approximately 25 mg/L (≈ 86.4 µM).
`Cc1ccccc1NC(=O)Nc1ccc2cnccc2n1` [compound 56, 1-(2-methyl-phenyl)-3-[1,6]naphthyridin-2-yl-urea]: the CC50 at 48 h in data set [1] is more than 100 mg/L.
`CC(C)Oc1ccccc1CNC(=O)c1ccc2cncc(-c3ccccn3)c2n1` [compound 57, 8-(2-pyridyl)-[1,6]naphthyridine-2-carboxylic acid (2-isopropoxybenzylamine)] gave an IC50 with HCMV virus of 0.1 to 1 mg/L (≈ 0.251 to 2.51 µM). The CC50 at 48 h in data set [1] lay within 6 to 12.5 mg/L (≈ 15.1 to 31.4 µM).
In the same order, the values of `Cc1ccccc1CNC(=O)c1ccc2cnccc2n1` [compound #1, N-(2-methylbenzyl)-2-(1,6)naphthyridinecarboxamide] are approximately 1 mg/L (≈ 3.61 µM) and 50 to 75 mg/L (≈ 180 to 270 µM).
In the same order, the values of `O=C(NCc1ccccc1)c1ccc2cnccc2n1` [compound #2, N-benzyl-2-(1,6)naphthyridinecarboxamide] are approximately 1 mg/L (≈ 3.8 µM) and approximately 50 mg/L (≈ 190 µM).
Take `O=C(NCc1ccc(Br)cc1)c1ccc2cnccc2n1` [compound #3, N-(4-bromobenzyl)-2-(1,6)naphthyridi necarboxamide]: the IC50 in the data set with HCMV virus lay within 10 to 50 mg/L (≈ 29.2 to 146 µM). For the same compound, the CC50 at 48 h in data set [1] was in the range of 10 to 50 mg/L (≈ 29.2 to 146 µM).
On to `O=C(NCc1ccccc1Cl)c1ccc2cnccc2n1` [compound #4, N-(2-chlorobenzyl)-2-(1,6)naphthyridinecarboxamide], for which the IC50 with HCMV virus was 0.5 to 1 mg/L (≈ 1.68 to 3.36 µM). Further, in data set [1], the CC50 at 48 h is approximately 100 mg/L (≈ 336 µM).
In the same order, the values of `O=C(NCc1ccccc1Br)c1ccc2cnccc2n1` [compound #5, N-(2-bromobenzyl)-2-(1,6)naphthyridinecarboxamide] are 0.5 to 1 mg/L (≈ 1.46 to 2.92 µM) and more than 100 mg/L.
In the same order, the values of `O=C(NCc1cccc(Br)c1)c1ccc2cnccc2n1` [compound #6, N-(3-bromobenzyl)-2-(1,6)naphthyridinecarboxamide] are 1 to 5 mg/L (≈ 2.92 to 14.6 µM) and approximately 50 mg/L (≈ 146 µM).
`O=C(NCc1ccccc1F)c1ccc2cnccc2n1` [compound #7, N-(2-fluorobenzyl)-2-(1,6)naphthyridinecarboxamide] displayed an IC50 in the data set on HCMV virus of less than 5 mg/L. Also, the CC50 at 48 h in data set [1] is approximately 100 mg/L (≈ 356 µM).
The corresponding values for `O=C(NCc1ccc(Cl)cc1)c1ccc2cnccc2n1` [compound #8, N-(4-chlorobenzyl)-2-[1,6]naphthyridinecarboxamide] are 1 to 10 mg/L (≈ 3.36 to 33.6 µM) and 6.25 to 10 mg/L (≈ 21 to 33.6 µM).
For `CCOc1ccccc1CNC(=O)c1ccc2cnccc2n1` [compound #9, N-(2-ethyloxybenzyl)-2-(1,6)naphthyridinecarboxamide], the IC50 with HCMV virus was approximately 0.1 mg/L (≈ 0.325 µM). Besides, the CC50 at 48 h in data set [1] was approximately 6.25 mg/L (≈ 20.3 µM).
The corresponding values for `COc1cccc(CNC(=O)c2ccc3cnccc3n2)c1` [compound #12, N-(3-methoxybenzyl)-2-(1,6)naphthyridinecarboxamide] are less than 5 mg/L and more than 100 mg/L.
`O=C(NCc1ccccc1C(F)(F)F)c1ccc2cnccc2n1` [compound #13, N-(2-trifluoromethylbenzyl)-2-(1,6)naphthyridinecarboxamide]: the IC50 in the data set on HCMV virus was less than 5 mg/L. Further, the CC50 at 48 h in data set [1] is more than 100 mg/L.
In the same order, the values of `COc1cccc(OC)c1CNC(=O)c1ccc2cnccc2n1` [compound #14, N-(2,6-dimethoxybenzyl)-2-(1,6)naphthyridinecarboxamide] are less than 5 mg/L and more than 100 mg/L.
`Nc1cccc(F)c1CNC(=O)c1ccc2cnccc2n1` [compound #16, N-(2-amino-6-fluorobenzyl)-2-[1,6]naphthyridinecarboxamide] gave an IC50 with HCMV virus of 1 to 10 mg/L (≈ 3.37 to 33.7 µM). Also, in data set [1], the CC50 at 48 h was approximately 25 mg/L (≈ 84.4 µM).
In the same order, the values of `CC(NC(=O)c1ccc2cnccc2n1)c1ccccc1` (stereo not shown) [compound #17, [1,6]naphthyridine-2-carboxylic acid (1-phenyl-ethyl) amide] are 0.1 to 1 mg/L (≈ 0.361 to 3.61 µM) and 25 to 50 mg/L (≈ 90.1 to 180 µM).
In the same order, the values of `O=C(NCc1ccccn1)c1ccc2cnccc2n1` [compound #18, [1,6]naphthyridine-2-carboxylic acid (pyridine-2-ylmethyl) amide] are 5 to 25 mg/L (≈ 18.9 to 94.6 µM) and more than 100 mg/L.
Compound `O=C(NCC1CCCCC1)c1ccc2cnccc2n1` [compound #19] showed an IC50 with HCMV virus of 1 to 10 mg/L (≈ 3.71 to 37.1 µM). Moreover, in data set [1], the CC50 at 48 h fell in the range of 25 to 50 mg/L (≈ 92.8 to 186 µM).
In the same order, the values of `O=C(c1ccc2cnccc2n1)N1CCc2ccccc2C1` [compound #20, (3,4-dihydro-1h-isoquinolin-2-yl)-[1,6]naphthyridin-2-yl-methanone] are 5 to 25 mg/L (≈ 17.3 to 86.4 µM) and more than 100 mg/L.
In the data set on HCMV virus, `CSc1ccccc1CNC(=O)c1ccc2cnccc2n1` [compound #21, N-(2-methylthiobenzyl)-2-[1,6]naphthyridine carboxamide] came in with an IC50 of 1 to 10 mg/L (≈ 3.23 to 32.3 µM). In addition, in data set [1], the CC50 at 48 h is approximately 50 mg/L (≈ 162 µM).
In the same order, the values of `O=C(NCc1ccccc1O)c1ccc2cnccc2n1` [compound #22, N-(2-hydroxybenzyl)-2-(1,6)naphthyridinecarboxamide] are less than 5 mg/L and 25 to 100 mg/L (≈ 89.5 to 358 µM).
The corresponding values for `COC(=O)c1ccccc1CNC(=O)c1ccc2cnccc2n1` [compound #23, N-(2-methoxycarbonylbenzyl)-2-(1,6)naphthyridinecarboxamide] are less than 5 mg/L and more than 100 mg/L.
In the same order, the values of `C=CCNC(=O)c1ccc2cnccc2n1` [compound #24, (1,6)naphthyridine-2-carboxylic acid allylamide] are 5 to 10 mg/L (≈ 23.4 to 46.9 µM) and 10 to 100 mg/L (≈ 46.9 to 469 µM).
In the data set with HCMV virus, `CCNc1ccccc1CNC(=O)c1ccc2cncc(Br)c2n1` [compound #33, 8-bromo-[1,6]naphthyridine-2-carboxylic acid (2-N-ethylaminobenzylamine)] had an IC50 of less than 0.01 mg/L. The CC50 at 48 h in data set [1] was 6.25 to 12.5 mg/L (≈ 16.2 to 32.4 µM).
As to `CC(C)Oc1ccccc1CNC(=O)c1ccc2cncc(Br)c2n1` [compound #34, 8-bromo-[1,6]naphthyridine-2-carboxylic acid (2-isopropoxybenzylamine)], the IC50 in the data set on HCMV virus lay within 0.1 to 1 mg/L (≈ 0.25 to 2.5 µM). Besides, the CC50 at 48 h in data set [1] was approximately 12.5 mg/L (≈ 31.2 µM).
In the same order, the values of `COc1ccccc1CNC(=O)c1ccc2cncc(Br)c2n1` [compound #35, 8-bromo-[1,6]naphthyridine-2-carboxylic acid (2-methoxybenzylamine)] are approximately 0.01 mg/L (≈ 0.0269 µM) and approximately 12.5 mg/L (≈ 33.6 µM).
In the same order, the values of `CC(C)Oc1ccccc1CNC(=S)c1ccc2cnccc2n1` [compound #40, [1,6]Naphthyridine-2-thiocarboxylic acid-2-isopropoxybenzylamine] are 0.1 to 1 mg/L (≈ 0.296 to 2.96 µM) and 12.5 to 25 mg/L (≈ 37 to 74.1 µM).
In the same order, the values of `COc1cccc(CNC(=S)c2ccc3cnccc3n2)c1` [compound #41, [1,6]Naphthyridine-2-thiocarboxylic acid-3-methoxybenzylamine] are 1 to 10 mg/L (≈ 3.23 to 32.3 µM) and 25 to 50 mg/L (≈ 80.8 to 162 µM).
For the compound `CC(C)Oc1ccccc1NC(=O)Nc1ccc2cnccc2n1` [compound #46, 1-(2-iso-propoxy-phenyl)-3-[1,6]naphthyridin-2-yl-urea], in the data set on HCMV virus, the IC50 is approximately 0.01 mg/L (≈ 0.031 µM). Further, in data set [1], the CC50 at 48 h is approximately 25 mg/L (≈ 77.6 µM).
`CC(C)Oc1ccccc1CNC(=O)Nc1ccc2cnccc2n1` [compound #47, 1-(2-iso-propoxybenzyl)-3-[1,6]naphthyridin-2-yl-urea] came in with an IC50 in the data set with HCMV virus of 0.01 to 0.1 mg/L (≈ 0.0297 to 0.297 µM). Further, the CC50 at 48 h in data set [1] was 25 to 50 mg/L (≈ 74.3 to 149 µM).
